Data: patent publication US20110039879A1, “METHODS FOR INCREASING WHITE BLOOD CELLS” (FibroGen ,Inc., priority 2007, published 2011)

Key:
Type in all cases: in vivo, Swiss-Webster mice
[1] = system: total white blood cell (WBC); experiment: Total white blood cells by complete blood count on day 8, dosing day 1, 3, 5; conditions: Mus musculus, 192 h, mice, oral gavage, measured on day 8, read-out: Total WBC % Increase Over Control; for change in vivo at 60 mg/kg: 60 mg/kg on day 1, day 3 and day 5; for change in vivo at 100 mg/kg: 100 mg/kg on day 1, day 3 and day 5; for change in vivo at 200 mg/kg: 200 mg/kg on day 1, day 3 and day 5; for change in vivo at 20 mg/kg: 20 mg/kg on day 1, day 3 and day 5
Protocol: (§1) To examine the effect of compounds and methods of the present invention on increasing white blood cells, the following studies were performed. In one series of experiments, male Swiss-Webster mice were administered various compounds of the present invention via oral gavage using a ball-tipped gavage needle. […] Animals were dosed once daily for 3 or 4 days. Six hours after the final dosing, 200 μl blood samples were collected and total white blood cell, neutrophil, and lymphocyte levels were measured by complete blood count (CBC) using a CellDyn cell analyzer (Abbott Laboratories).
(§2) In another series of experiments, male Swiss-Webster mice were administered various compounds (see Table 7 and Table 8) of the present invention via oral gavage using a ball-tipped gavage needle. […] Total WBC, neutrophil, lymphocyte, and monocyte levels were measured in mice as described above on day 8 following administration of compound on day 1, day 3, and day 5.

[2] = system: neutrophils; experiment: Neutrophils by complete blood count on day 8, dosing day 1, 3, 5; conditions: Mus musculus, Neutrophil, 192 h, mice, oral gavage, measured on day 8, read-out: Neutrophils % Increase Over Control; for change in vivo at 60 mg/kg: 60 mg/kg on day 1, day 3 and day 5; for change in vivo at 100 mg/kg: 100 mg/kg on day 1, day 3 and day 5; for change in vivo at 200 mg/kg: 200 mg/kg on day 1, day 3 and day 5; for change in vivo at 20 mg/kg: 20 mg/kg on day 1, day 3 and day 5
Protocol: as §1, §2

[3] = system: lymphocytes; experiment: Lymphocytes by complete blood count on day 8, dosing day 1, 3, 5; conditions: mice, oral gavage, measured on day 8; for change in vivo at 60 mg/kg / change in vivo at 100 mg/kg / change in vivo at 200 mg/kg / change in vivo at 20 mg/kg: Mus musculus, Lymphocyte, 192 h, read-out: Lymphocytes % Increase Over Control
Protocol: as §1, §2

[4] = system: monocytes; experiment: Monocytes by complete blood count on day 8, dosing day 1, 3, 5; conditions: mice, oral gavage, measured on day 8
[5] = system: total white blood cell (WBC); experiment: Total white blood cells by complete blood count on day 8, dosing day 1, 3, 5; conditions: mice, oral gavage, measured on day 8
[6] = system: neutrophils; experiment: Neutrophils by complete blood count on day 8, dosing day 1, 3, 5; conditions: mice, oral gavage, measured on day 8
[7] = 60 mg/kg on day 1, day 3 and day 5
[8] = Mus musculus, Monocyte, 192 h, 60 mg/kg on day 1, day 3 and day 5, read-out: Monocytes % Increase Over Control
[9] = 100 mg/kg on day 1, day 3 and day 5
[10] = 200 mg/kg on day 1, day 3 and day 5
[11] = Mus musculus, Monocyte, 192 h, 200 mg/kg on day 1, day 3 and day 5, read-out: Monocytes % Increase Over Control
[12] = 20 mg/kg on day 1, day 3 and day 5
[13] = Mus musculus, Monocyte, 192 h, 20 mg/kg on day 1, day 3 and day 5, read-out: Monocytes % Increase Over Control

## N#Cc1nc(C(=O)NCC(=O)O)c(O)c2ccc(Oc3ccccc3)cc12 [Compound Z, [(1-Cyano-4-hydroxy-7-phenoxy-isoquinoline-3-carbonyl)-amino]-acetic acid]
[1]
  change in vivo at 60 mg/kg: 6%
[2]
  change in vivo at 60 mg/kg: 80%
[3]; [7]
  change in vivo at 60 mg/kg: 0%
  Lymphocytes: 7.1 10^3 cells/μl
[4]; [8]
  change in vivo at 60 mg/kg: 200%
[4]; [7]
  Monocytes: 0.1 10^3 cells/μl
[5]; [7]
  Total WBC: 8.3 10^3 cells/μl
[6]; [7]
  Neutrophils: 1.1 10^3 cells/μl

## N#Cc1nc(C(=O)NCC(=O)O)c(O)c2ccn(Cc3ccc4ccccc4c3)c12 [Compound R, [(7-Cyano-4-hydroxy-1-naphthalen-2-ylmethyl-1H-pyrrolo[2,3-c]pyridine-5-carbonyl)-amino]-acetic acid]
[1]
  change in vivo at 100 mg/kg: 290%
[2]
  change in vivo at 100 mg/kg: 71%
[3]; [9]
  change in vivo at 100 mg/kg: 330%
  Lymphocytes: 21.4 10^3 cells/μl
[4]; Mus musculus, Monocyte, 192 h, 100 mg/kg on day 1, day 3 and day 5, read-out: Monocytes % Increase Over Control
  change in vivo at 100 mg/kg: 205%
[4]; [9]
  Monocytes: 0.3 10^3 cells/μl
[5]; [9]
  Total WBC: 23.0 10^3 cells/μl
[6]; [9]
  Neutrophils: 1.3 10^3 cells/μl

## N#Cc1nc(C(=O)NCC(=O)O)c(O)c2ccn(Cc3ccc(-c4ccccc4)cc3)c12 [Compound AU, [(1-Biphenyl-4-ylmethyl-7-cyano-4-hydroxy-1H-pyrrolo[2,3-c]pyridine-5-carbonyl)-amino]-acetic acid]
[1]
  change in vivo at 60 mg/kg: 290%
[2]
  change in vivo at 60 mg/kg: 63%
[3]; [7]
  change in vivo at 60 mg/kg: 332%
  Lymphocytes: 21.0 10^3 cells/μl
[4]; [8]
  change in vivo at 60 mg/kg: 118%
[4]; [7]
  Monocytes: 0.3 10^3 cells/μl
[5]; [7]
  Total WBC: 22.6 10^3 cells/μl
[6]; [7]
  Neutrophils: 1.1 10^3 cells/μl

## O=C(O)CNC(=O)c1ncc2cc(Oc3ccc(F)c(F)c3)ccc2c1O [Compound V, {[7-(3,4-Difluoro-phenoxy)-4-hydroxy-isoquinoline-3-carbonyl]-amino}-acetic acid]
[1]
  change in vivo at 100 mg/kg: 145%
[2]
  change in vivo at 100 mg/kg: 132%
[3]; [9]
  change in vivo at 100 mg/kg: 146%
  Lymphocytes: 6.1 10^3 cells/μl
[4]; [9]
  Monocytes: 0.1 10^3 cells/μl
[5]; [9]
  Total WBC: 7.1 10^3 cells/μl
[6]; [9]
  Neutrophils: 0.8 10^3 cells/μl

## Cc1nc(C(=O)NCC(=O)O)c(O)c2ccc(Cl)cc12 [Compound Y, [(7-Chloro-4-hydroxy-1-methyl-isoquinoline-3-carbonyl)-amino]-acetic acid]
[1]
  change in vivo at 200 mg/kg: 34%
[2]
  change in vivo at 200 mg/kg: 200%
[3]; [10]
  change in vivo at 200 mg/kg: 17%
  Lymphocytes: 7.6 10^3 cells/μl
[4]; [11]
  change in vivo at 200 mg/kg: 700%
[4]; [10]
  Monocytes: 0.2 10^3 cells/μl
[5]; [10]
  Total WBC: 9.8 10^3 cells/μl
[6]; [10]
  Neutrophils: 1.9 10^3 cells/μl

## N#Cc1nc(C(=O)NCC(=O)O)c(O)c2c(Cl)cn(Cc3ccccc3)c12 [Compound F, [(1-Benzyl-3-chloro-7-cyano-4-hydroxy-1H-pyrrolo[2,3-c]pyridine-5-carbonyl)-amino]-acetic acid]
[1]
  change in vivo at 100 mg/kg: 81%
[2]
  change in vivo at 100 mg/kg: 23%
[3]; [9]
  change in vivo at 100 mg/kg: 86%
  Lymphocytes: 11.6 10^3 cells/μl
[4]; [9]
  Monocytes: 0.1 10^3 cells/μl
[5]; [9]
  Total WBC: 12.6 10^3 cells/μl
[6]; [9]
  Neutrophils: 0.7 10^3 cells/μl

## O=C(O)CNC(=O)c1c(O)c2ccccc2sc1=O [Compound BF, [(4-Hydroxy-2-oxo-2H-thiochromene-3-carbonyl)-amino]-acetic acid]
[1]
  change in vivo at 20 mg/kg: 17%
[2]
  change in vivo at 20 mg/kg: 65%
[3]; [12]
  change in vivo at 20 mg/kg: 12%
  Lymphocytes: 7.1 10^3 cells/μl
[4]; [13]
  change in vivo at 20 mg/kg: 64%
[4]; [12]
  Monocytes: 0.2 10^3 cells/μl
[5]; [12]
  Total WBC: 8.4 10^3 cells/μl
[6]; [12]
  Neutrophils: 1.0 10^3 cells/μl

## Cc1cccc(C)c1Oc1ccc2c(C#N)nc(C(=O)NCC(=O)O)c(O)c2c1 [Compound E, {[1-Cyano-6-(2,6-dimethyl-phenoxy)-4-hydroxy-isoquinoline-3-carbonyl]-amino}-acetic acid]
[1]
  change in vivo at 200 mg/kg: 221%
[2]
  change in vivo at 200 mg/kg: 54%
[3]; [10]
  change in vivo at 200 mg/kg: 245%
  Lymphocytes: 15.8 10^3 cells/μl
[4]; [11]
  change in vivo at 200 mg/kg: 100%
[4]; [10]
  Monocytes: 0.1 10^3 cells/μl
[5]; [10]
  Total WBC: 16.6 10^3 cells/μl
[6]; [10]
  Neutrophils: 0.8 10^3 cells/μl

## C[C@H](c1ccccc1)n1c(Cl)c(Cl)c2c(O)c(C(=O)NCC(=O)O)nc(C#N)c21 [Compound L, {[(R)-2,3-Dichloro-7-cyano-4-hydroxy-1-(1-phenyl-ethyl)-1H-pyrrolo[2,3-c]pyridine-5-carbonyl]-amino}-acetic acid]
[1]
  change in vivo at 100 mg/kg: 281%
[2]
  change in vivo at 100 mg/kg: 469%
[3]; [9]
  change in vivo at 100 mg/kg: 262%
  Lymphocytes: 18.0 10^3 cells/μl
[4]; [9]
  Monocytes: 0.0 10^3 cells/μl
[5]; [9]
  Total WBC: 22.8 10^3 cells/μl
[6]; [9]
  Neutrophils: 4.8 10^3 cells/μl

## Cc1cccc(Oc2cccc3c(C#N)nc(C(=O)NCC(=O)O)c(O)c23)c1 [Compound AY, {[1-Cyano-4-hydroxy-5-m-tolyloxy-isoquinoline-3-carbonyl]-amino}-acetic acid]
[1]
  change in vivo at 20 mg/kg: 19%
[2]
  change in vivo at 20 mg/kg: 9%
[3]; [12]
  change in vivo at 20 mg/kg: 21%
  Lymphocytes: 6.5 10^3 cells/μl
[4]; [13]
  change in vivo at 20 mg/kg: 8%
[4]; [12]
  Monocytes: 0.2 10^3 cells/μl
[5]; [12]
  Total WBC: 7.5 10^3 cells/μl
[6]; [12]
  Neutrophils: 0.7 10^3 cells/μl

## CC(C)Oc1ccc2c(O)c(C(=O)NCC(=O)O)nc(C#N)c2c1 [Compound H, [(1-Cyano-4-hydroxy-7-isopropoxy-isoquinoline-3-carbonyl)-amino]-acetic acid]
[1]
  change in vivo at 100 mg/kg: 120%
  change in vivo at 200 mg/kg: 783%
[2]
  change in vivo at 100 mg/kg: 135%
  change in vivo at 200 mg/kg: 6%
[3]; [9]
  change in vivo at 100 mg/kg: 120%
  Lymphocytes: 7.7 10^3 cells/μl
[3]; [10]
  change in vivo at 200 mg/kg: 963%
  Lymphocytes: 37.0 10^3 cells/μl
[4]; [9]
  Monocytes: 0.1 10^3 cells/μl
[4]; [10]
  Monocytes: 0.1 10^3 cells/μl
[5]; [9]
  Total WBC: 9.4 10^3 cells/μl
[5]; [10]
  Total WBC: 37.8 10^3 cells/μl
[6]; [9]
  Neutrophils: 1.6 10^3 cells/μl
[6]; [10]
  Neutrophils: 0.7 10^3 cells/μl

## Cc1nc(C(=O)NCC(=O)O)c(O)c2cccc(Oc3ccccc3)c12 [Compound AC, [(4-Hydroxy-1-methyl-8-phenoxy-isoquinoline-3-carbonyl)-amino]-acetic acid]
[1]
  change in vivo at 100 mg/kg: 94%
[2]
  change in vivo at 100 mg/kg: 96%
[3]; [9]
  change in vivo at 100 mg/kg: 95%
  Lymphocytes: 8.0 10^3 cells/μl
[4]; [9]
  Monocytes: 0.1 10^3 cells/μl
[5]; [9]
  Total WBC: 9.2 10^3 cells/μl
[6]; [9]
  Neutrophils: 1.0 10^3 cells/μl

## CCCCCCn1cc(Cl)c2c(O)c(C(=O)NCC(=O)O)nc(C#N)c21 [Compound AS, [(3-Chloro-7-cyano-1-hexyl-4-hydroxy-1H-pyrrolo[2,3-c]pyridine-5-carbonyl)-amino]-acetic acid]
[1]
  change in vivo at 20 mg/kg: 24%
[2]
  change in vivo at 20 mg/kg: 42%
[3]; [12]
  change in vivo at 20 mg/kg: 24%
  Lymphocytes: 6.0 10^3 cells/μl
[4]; [13]
  change in vivo at 20 mg/kg: -8%
[4]; [12]
  Monocytes: 0.2 10^3 cells/μl
[5]; [12]
  Total WBC: 7.2 10^3 cells/μl
[6]; [12]
  Neutrophils: 0.9 10^3 cells/μl
